Measured values: patent US8338418B2, “Dual-acting antihypertensive agents” (Theravance, Inc., priority 2008, dated 2012)

Legend:
NEP enzyme = target: T1, NEP enzyme (Homo sapiens, UniProt P08473); experiment: In vitro NEP enzyme inhibition assay; type: biochemical; details: fluorogenic peptide substrate; read-out: pIC50 for the NEP enzyme (converted)
T1 construct: purchased R&D Systems, Minneapolis, Minn; 1182-ZN
Method: The inhibitory activities of compounds at human and rat NEP and human ACE were determined using in vitro assays as described below.
Rat NEP was prepared from the kidneys of adult Sprague Dawley rats. Whole kidneys were washed in cold PBS and brought up in ice-cold lysis buffer (1% Triton X-114, 150 mM NaCl, 50 mM Tris pH 7.5; Bordier (1981) J. Biol. Chem. 256:1604-1607) in a ratio of 5 mL of buffer for every gram of kidney. Samples were homogenized using a polytron hand held tissue grinder on ice. Homogenates were centrifuged at 1000×g in a swinging bucket rotor for 5 minutes at 3° C. The pellet was resuspended in 20 mL of ice cold lysis buffer and incubated on ice for 30 minutes. […] Protein concentrations were quantitated using a BCA detection system with BSA as a standard. […]
The assays were performed in 384-well white opaque plates at room temperature using the respective fluorogenic peptides at a concentration of 10 μM in Assay Buffer (50 mM Tris/HCl at 25° C., 100 mM NaCl, 0.01% Tween-20, 1 μM Zn, 0.025% BSA). […] The rat NEP enzyme preparation was used at a concentration that yielded quantitative proteolysis of 3 μM of Mca-RRL within 20 minutes at room temperature. […]
Plates were read on a fluorometer with excitation and emission wavelengths set to 320 nm and 405 nm, respectively. […]

human AT1 receptor = target: T2, human AT1 receptor (Homo sapiens, UniProt P30556); experiment: AT1 radioligand binding assay; details: [Eu]AngII displacement, CHO-K1 membranes expressing human AT1; read-out: pKi at the AT1 receptor (converted)
T2 construct: expressed in transfected cells; membrane preparation
T2 sequence (P30556 1-359): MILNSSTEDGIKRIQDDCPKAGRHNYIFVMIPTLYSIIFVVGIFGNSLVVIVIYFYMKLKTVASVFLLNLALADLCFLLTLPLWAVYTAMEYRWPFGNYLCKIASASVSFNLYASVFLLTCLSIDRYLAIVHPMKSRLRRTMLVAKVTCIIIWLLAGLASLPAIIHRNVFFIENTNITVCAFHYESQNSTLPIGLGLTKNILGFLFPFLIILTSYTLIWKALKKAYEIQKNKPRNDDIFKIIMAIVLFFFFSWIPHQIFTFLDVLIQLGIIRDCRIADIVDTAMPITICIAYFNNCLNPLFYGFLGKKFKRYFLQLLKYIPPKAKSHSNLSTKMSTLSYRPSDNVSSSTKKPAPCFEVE
Method: These in vitro assays were used to assess the ability of test compounds to bind to the AT1 and the AT2 receptors.
Membrane Preparation from Cells Expressing Human AT1 or AT2 Receptors
Chinese hamster ovary (CHO-K1) derived cell lines stably expressing the cloned human AT1 or AT2 receptors, respectively, were grown in HAM's-F12 medium supplemented with 10% fetal bovine serum, 10 μg/ml penicillin/streptomycin, and 500 μg/ml geneticin in a 5% CO2 humidified incubator at 37° C. AT2 receptor expressing cells were grown in the additional presence of 100 nM PD123,319 (AT2 antagonist). When cultures reached 80-95% confluence, the cells were washed thoroughly in PBS and lifted with 5 mM EDTA. Cells were pelleted by centrifugation and snap frozen in MeOH-dry ice and stored at −80° C. until further use.
For membrane preparation, cell pellets were resuspended in lysis buffer (25 mM Tris/HCl pH 7.5 at 4° C., 1 mM EDTA, and one tablet of Complete Protease Inhibitor Cocktail Tablets with 2 mM EDTA per 50 mL buffer (Roche cat. #1697498, Roche Molecular Biochemicals, Indianapolis, Ind.)) and homogenized using a tight-fitting Dounce glass homogenizer (10 strokes) on ice. The homogenate was centrifuged at 1000×g, the supernatant was collected and centrifuged at 20,000×g. […] Protein concentration of the membrane suspension was determined by the method described in Bradford (1976) Anal Biochem. 72:248-54. […]

T1 sequence (P08473 52-750 limits assumed): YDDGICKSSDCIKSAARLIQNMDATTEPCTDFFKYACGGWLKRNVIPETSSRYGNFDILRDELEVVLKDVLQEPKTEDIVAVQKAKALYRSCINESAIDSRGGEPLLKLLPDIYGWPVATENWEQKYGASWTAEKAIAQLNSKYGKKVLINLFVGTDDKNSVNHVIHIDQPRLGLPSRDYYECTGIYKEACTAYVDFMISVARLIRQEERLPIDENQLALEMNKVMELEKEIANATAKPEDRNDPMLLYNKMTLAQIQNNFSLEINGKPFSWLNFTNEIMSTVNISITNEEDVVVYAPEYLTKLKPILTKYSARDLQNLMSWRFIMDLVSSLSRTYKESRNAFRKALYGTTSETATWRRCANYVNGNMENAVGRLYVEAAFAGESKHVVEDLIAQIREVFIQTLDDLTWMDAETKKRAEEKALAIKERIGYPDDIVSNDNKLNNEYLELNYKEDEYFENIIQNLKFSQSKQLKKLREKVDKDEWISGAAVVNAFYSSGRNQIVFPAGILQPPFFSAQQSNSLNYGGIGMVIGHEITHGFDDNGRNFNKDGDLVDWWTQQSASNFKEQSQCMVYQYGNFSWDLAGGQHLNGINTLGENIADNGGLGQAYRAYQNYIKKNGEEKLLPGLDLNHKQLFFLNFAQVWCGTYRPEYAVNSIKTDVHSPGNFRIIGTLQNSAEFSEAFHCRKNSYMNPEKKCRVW

IC50 (NEP enzyme): ≤ 0.1 µM | Ki (human AT1 receptor): < 10 µM
SMILES: CCCCc1nc(C(=O)N[C@@H](CC(=O)NO)Cc2ccccc2)cn1Cc1ccc(C(=O)O)cc1 [Example 1, 4-[4-((R)-1-benzyl-2-hydroxycarbamoylethylcarbamoyl)-2-butyl-imidazol-1-ylmethyl]benzoic Acid]
